In patent US20230062100A1, “SUBSTITUTED AMINOQUINOLONES AS DGKALPHA INHIBITORS FOR IMMUNE ACTIVATION” (Bayer Aktiengesellschaft, priority 2019, published 2023):

What was measured:
DGKα [1] = target: T1, DGKα (Homo sapiens, UniProt P23743); conditions: literature report; cited from earlier work
Target sequence in this assay (P23743 whole entry, species assumed): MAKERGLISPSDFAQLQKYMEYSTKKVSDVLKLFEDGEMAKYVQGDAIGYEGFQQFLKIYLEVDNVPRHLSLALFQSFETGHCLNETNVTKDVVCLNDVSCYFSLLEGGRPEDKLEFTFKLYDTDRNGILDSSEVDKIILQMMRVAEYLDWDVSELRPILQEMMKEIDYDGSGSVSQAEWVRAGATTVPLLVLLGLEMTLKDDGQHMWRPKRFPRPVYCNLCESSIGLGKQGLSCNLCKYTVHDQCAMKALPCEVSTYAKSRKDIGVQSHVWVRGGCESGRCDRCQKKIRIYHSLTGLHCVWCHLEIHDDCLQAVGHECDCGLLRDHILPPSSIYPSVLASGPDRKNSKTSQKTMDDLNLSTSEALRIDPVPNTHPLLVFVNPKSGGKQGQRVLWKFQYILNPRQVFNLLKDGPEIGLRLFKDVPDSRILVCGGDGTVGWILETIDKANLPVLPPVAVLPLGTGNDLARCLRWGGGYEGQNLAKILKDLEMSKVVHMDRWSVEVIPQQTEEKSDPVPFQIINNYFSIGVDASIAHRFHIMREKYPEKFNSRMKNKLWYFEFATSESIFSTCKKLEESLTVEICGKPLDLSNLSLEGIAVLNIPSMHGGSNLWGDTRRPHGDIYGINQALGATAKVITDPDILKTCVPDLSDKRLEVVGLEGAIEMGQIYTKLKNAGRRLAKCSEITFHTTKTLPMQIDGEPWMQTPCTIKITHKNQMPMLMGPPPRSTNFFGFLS

DGKα [2] = target: T1, DGKα; assay: Human DGKα kinase activity inhibition assay (ADP-Glo); type: biochemical; conditions: in vitro human DGKα kinase activity inhibition assay
Outline: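 C-terminally FLAG-tagged full-length human DGKα from baculovirus/insect cells (typically ~0.1 nM) phosphorylated 1,2-dioleoyl-sn-glycerol in octyl-β-D-glucopyranoside micelles in MOPS pH 7.4. ADP formed was quantified by ADP-Glo luminescence after 1 h ATP depletion at 22 °C.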
Target sequence in this assay (P23743 with tags, fused parts or gaps): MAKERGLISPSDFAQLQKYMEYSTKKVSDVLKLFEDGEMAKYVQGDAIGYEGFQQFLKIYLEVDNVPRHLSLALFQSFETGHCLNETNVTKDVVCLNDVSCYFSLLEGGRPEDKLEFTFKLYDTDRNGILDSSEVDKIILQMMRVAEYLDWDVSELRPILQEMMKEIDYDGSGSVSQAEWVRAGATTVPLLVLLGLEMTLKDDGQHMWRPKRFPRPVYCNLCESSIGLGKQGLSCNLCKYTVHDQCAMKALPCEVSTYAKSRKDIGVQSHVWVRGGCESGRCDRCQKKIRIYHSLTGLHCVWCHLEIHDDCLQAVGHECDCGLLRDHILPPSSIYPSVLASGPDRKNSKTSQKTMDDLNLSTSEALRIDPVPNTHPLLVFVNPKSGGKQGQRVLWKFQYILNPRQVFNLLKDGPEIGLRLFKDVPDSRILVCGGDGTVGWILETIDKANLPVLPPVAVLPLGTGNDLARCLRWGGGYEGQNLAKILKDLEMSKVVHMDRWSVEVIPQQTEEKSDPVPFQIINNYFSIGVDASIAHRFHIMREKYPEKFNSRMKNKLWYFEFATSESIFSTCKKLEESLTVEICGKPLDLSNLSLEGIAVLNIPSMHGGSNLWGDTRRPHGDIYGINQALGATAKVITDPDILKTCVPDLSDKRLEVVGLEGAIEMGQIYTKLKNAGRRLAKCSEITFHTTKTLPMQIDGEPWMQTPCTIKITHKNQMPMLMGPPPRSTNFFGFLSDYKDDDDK

GBM tumors = conditions: concurrent administration; literature report; cited from earlier work

SMILES: Cc1ccc2c(C(=O)CN3CCN(C(=O)c4ccco4)CC3)c(C)[nH]c2c1 [AMB639752]
- inhibitory activity on DGKα (DGKα [1]): micromolar

SMILES: O=C1/C(=C\C=C\c2ccco2)SC(=S)N1NS(=O)(=O)c1ccccc1 [CU-3]
- inhibitory activity on DGKα (DGKα [1]): sub-micromolar

SMILES: Cc1cccc(OC2CCN(c3c(C(N)=O)c(=O)n(C)c4ccc(C)cc34)CC2)c1 [Example 158, 1,6-dimethyl-4-[4-(3-methylphenoxy)piperidin-1-yl]-2-oxo-1,2-dihydroquinoline-3-carboxamide]
- IC50 (DGKα [2]): 0.012 µM

SMILES: COc1cccc(OC2CCN(c3c(C(N)=O)c(=O)n(C)c4ccc(C)cc34)CC2)c1 [Example 159, 4-[4-(3-methoxyphenoxy)piperidin-1-yl]-1,6-dimethyl-2-oxo-1,2-dihydroquinoline-3-carboxamide]
- IC50 (DGKα [2]): 0.012 µM

SMILES: Cc1ccc2c(c1)c(N1CCC(Oc3ccc(OC(F)(F)F)cc3)CC1)c(C(N)=O)c(=O)n2C [Example 160, 1,6-dimethyl-2-oxo-4-{4-[4-(trifluoromethoxy)phenoxy]piperidin-1-yl}-1,2-dihydroquinoline-3-carboxamide]
- IC50 (DGKα [2]): 0.0031 µM

SMILES: COc1cc(C)ccc1OC1CCN(c2c(C(N)=O)c(=O)n(C)c3ccc(C)cc23)CC1 [Example 161, 4-[4-(2-methoxy-4-methylphenoxy)piperidin-1-yl]-1,6-dimethyl-2-oxo-1,2-dihydroquinoline-3-carboxamide]
- IC50 (DGKα [2]): 0.021 µM

SMILES: COc1ccccc1OC1CCN(c2c(C(N)=O)c(=O)n(C)c3ccc(C)cc23)CC1 [Example 162]
- IC50 (DGKα [2]): 0.057 µM

SMILES: Cc1ccc2c(c1)c(N1CCC(Oc3ccccc3Cl)CC1)c(C(N)=O)c(=O)n2C [Example 163, 4-[4-(2-chlorophenoxy)piperidin-1-yl]-1,6-dimethyl-2-oxo-1,2-dihydroquinoline-3-carboxamide]
- IC50 (DGKα [2]): 0.059 µM

SMILES: Cn1c(=O)c(C(N)=O)c(N2CCC(Oc3ccc(OC(F)(F)F)cc3)CC2)c2cccc(Cl)c21 [Example 164, 8-chloro-1-methyl-2-oxo-4-{4-[4-(trifluoromethoxy)phenoxy]piperidin-1-yl}-1,2-dihydroquinoline-3-carboxamide]
- IC50 (DGKα [2]): 0.037 µM

SMILES: Cn1c(=O)c(C(N)=O)c(N2CCC(Oc3ccc(OC(F)(F)F)cc3)CC2)c2cc(F)ccc21 [Example 165, 6-fluoro-1-methyl-2-oxo-4-{4-[4-(trifluoromethoxy)phenoxy]piperidin-1-yl}-1,2-dihydroquinoline-3-carboxamide]
- IC50 (DGKα [2]): 0.00017 µM

SMILES: Cn1c(=O)c(C#N)c(N2CCC(Oc3ccc(OC(F)(F)F)cc3)CC2)c2cc(F)ccc21 [Example 166, 6-fluoro-1-methyl-2-oxo-4-{4-[4-(trifluoromethoxy)phenoxy]piperidin-1-yl}-1,2-dihydroquinoline-3-carbonitrile]
- IC50 (DGKα [2]): 0.00097 µM

SMILES: Cn1c(=O)c(C#N)c(N2CCC(Oc3ccc(OC(F)(F)F)cc3)CC2)c2cc(O)ccc21 [Example 167, 6-hydroxy-1-methyl-2-oxo-4-{4-[4-(trifluoromethoxy)phenoxy]piperidin-1-yl}-1,2-dihydroquinoline-3-carbonitrile]
- IC50 (DGKα [2]): 0.00094 µM

SMILES: Cc1cc(Br)c2c(c1)c(N1CCC(Oc3ccc(OC(F)(F)F)cc3)CC1)c(C#N)c(=O)n2C [Example 168, 8-bromo-1,6-dimethyl-2-oxo-4-{4-[4-(trifluoromethoxy)phenoxy]piperidin-1-yl}-1,2-dihydroquinoline-3-carbonitrile]
- IC50 (DGKα [2]): 0.556 µM

SMILES: Cc1cc(Br)c2c(c1)c(N1CCC(Oc3cccc(Cl)c3)CC1)c(C#N)c(=O)n2C [Example 169, 8-bromo-4-[4-(3-chlorophenoxy)piperidin-1-yl]-1,6-dimethyl-2-oxo-1,2-dihydroquinoline-3-carbonitrile]
- IC50 (DGKα [2]): 2.53 µM

SMILES: Cc1nc2sccn2c(=O)c1CCN1CCC(=C(c2ccccc2)c2ccc(F)cc2)CC1 [Example R59022]
- growth of intracranially injected GBM tumors (GBM tumors): decreased growth

SMILES: Cc1nc2sccn2c(=O)c1CCN1CCC(=C(c2ccc(F)cc2)c2ccc(F)cc2)CC1 [Ritanserin]
- inhibitory activity on DGKα (DGKα [1]): comparable activity
